Consider 4 molecules from ChEMBL document CHEMBL1152113, “The prooligonucleotide approach. III: Synthesis and bioreversibility of a chimeric phosphorodithioate prooligonucleotide” (Bioorg Med Chem Lett, 1996).

By half-life is commonly meant the time needed for the level to fall by half in the phase considered.

The nature of data set [1]: Half life period was reported in total cell extract medium. Format: ADME.
Data set [2] in a line: Half life period was reported in porcine liver esterase medium. Conditions: pig. Format: ADME, Sus scrofa.
Data set [3] in a line: Half life period was reported in gastric juice. Format: ADME, tissue-based.
A short description of data set [4]: Half life period was reported in a culture medium (RPMI 1640 + 10% FCS). Format: ADME.
A short description of data set [5]: Half life period was reported in gastric juice, stable; No degradation observed up to 30 days. Format: ADME, tissue-based. Conditions: simulated gi fluid, 720 h.
Data set [6] can be described thus: Half life period was reported in gastric juice; stable No degradation observed up to 30 days. Format: ADME, tissue-based. Conditions: simulated gi fluid, 720 h.

Structures are written as SMILES. Some results are limits rather than exact numbers.

On to `CC(=O)SCCSP(=S)(OC[C@H]1O[C@@H](n2cc(C)c(=O)[nH]c2=O)C[C@@H]1O)O[C@H]1C[C@H](n2cc(C)c(=O)[nH]c2=O)O[C@@H]1CO` (some centres undefined), for which the half-life was less than 5 min in data set [1], less than 2 min in data set [2], 168 h in data set [3] and 6 h in data set [4].
On to `Cc1cn([C@H]2C[C@H](OP(=S)(OC[C@H]3O[C@@H](n4cc(C)c(=O)[nH]c4=O)C[C@@H]3O)SCCSC(=O)c3ccccc3)[C@@H](CO)O2)c(=O)[nH]c1=O` (some centres undefined), for which the half-life in data set [1] is 36 min; in data set [2] it was 5 min; in data set [4], 46.5 h. The T1/2 result in data set [5] is given as “No degradation”.
`Cc1cn([C@H]2C[C@H](OP(=S)(OC[C@H]3O[C@@H](n4cc(C)c(=O)[nH]c4=O)C[C@@H]3O)SCCSC(=O)C(C)(C)C)[C@@H](CO)O2)c(=O)[nH]c1=O` (some centres undefined): the half-life in data set [1] is 54 min; in data set [2] it was less than 4 min; in data set [4], 42.7 h. In addition, in data set [6], the T1/2 result was “No degradation”.
Turning to `CCCCCCCCCCCCOC[C@H]1O[C@@H](n2cc(C)c(=O)[nH]c2=O)C[C@@H]1O`, the half-life is 15 min in data set [1] and 32 h in data set [4].
